Assay results published in patent US20240197700A1, “Methods and Compositions for Treating Lysosomal Storage Disorders” (Sanford Health, priority 2021, published 2024).
“Also recorded” adds a separate entry of the source.

What was measured:
NCL MEFs = test: Autofluorescent storage material (ASM) in Batten disease mouse embryonic fibroblasts; assay type: cell-based
Description: Specific experimental details are included in figure legends. In general, after collection and preparation, MEFs and PNCs were dosed with vehicle or AF38469 (40 nM, 400 nM. or 4 μM) on DIV3 and DIV5. On DIV7, cells were treated with the following dyes: Hoechst 33342 (1:1000 dilution), LysoTrackerT™ Red DND-99 (1:10,000 dilution), fixed, and imaged. Mice were given vehicle or AF38469 (78.125 μg/ml, 3.125 μg/ml, 0.3125 μg/ml or 0.03125 μg/ml equating approximately to 250 μg/mouse/day, 10 μg/mouse/day, 1 μg/mouse/day, and […], respectively, given a mouse's daily water intake of approximately 3.2 ml per day) in drinking water beginning at wean. Body weight was measured bi-weekly, and a force actimeter test was performed on Cln2^R207X mice at 10 weeks of age. Body weight was measured every month for Cln3^Δex7/8 mice. At 11 and 16 weeks of age, respectively, Cln2^R207X and Cln3^Δex7/8 mice along with age matched wild type control mice were CO2 euthanized and intracardially perfused with PBS. Brains were collected and placed on a 1 mm sagittal brain block. Brains were sliced at the midline and 3 mm right of the midline. One hemisphere was fixed in 4% PFA and sectioned at 50 microns on a vibratome. Immunohistochemistry was performed on free-floating sections. For mitochondrial ATP synthase subunit C (SubC), glial fibrillary acidic protein (GFAP), and cluster of differentiation 68 (CD68) immunolabeling, primary antibodies included anti-SubC (Abcam, ab181243; 1:1000), anti-GFAP (Dako, Z0334; 1:5000), anti-CD68 (AbD Serotec, MCA1957; 1:2000), and secondary antibodies included anti-rabbit biotinylated (Vector Labs, BA-1000 1:1000) and anti-rat (Vector Labs, BA-9400 1:1000). Coverslips were mounted on slides using antifade-mounting media and were stored in the dark before imaging. Sections were imaged and analyzed using an Aperio Digital Pathology Slide Scanner (AT2) and associated software. Images were extracted from S1BF of the somatosensory cortex and the VPM/VPL of the thalamus, with multiple images taken of multiple tissues from each animal.
• An increase in percent area or total area of positive autofluorescent storage material (ASM) signal in untreated NCL MEFs or PNCs relative to age-matched, wild type MEFs or PNCs is considered an increase in the accumulation of autofluorescent storage material, reflecting disease-related lysosomal dysfunction. • A decrease in percent area or total area of positive autofluorescent storage material signal in AF38469 treated MEFs and PNCs relative to age-matched, vehicle treated MEFs and PNCs is considered a reduction in the accumulation of autofluorescent storage material and thus a decrease in disease-related lysosomal dysfunction. • LysoTracker™ is an acidophilic dye that labels lysosomes and accumulation increases with an increase in lysosome size or number. Cell and mouse models of lysosomal storage disorders often have increased accumulation of lysosomes and therefore have a stronger LysoTracker™ signal. […]

NCL PNCs = test: LysoTracker signal in Batten disease primary neuronal cultures; assay type: cell-based, mouse
Description: Specific experimental details are included in figure legends. In general, after collection and preparation, MEFs and PNCs were dosed with vehicle or semaglutide (10 nM, 100 nM. or 1 μM) on DIV3 and DIV5. On DIV7, cells were exposed to the following dyes: Hoechst 33342 (1:1000 dilution), LysoTracker™ Red DND-99 (1:10,000 dilution), fixed. and imaged. Mice were injected three times per week with vehicle or semaglutide (2.571 μg/mouse, 25.71 μg/mouse) beginning at wean. Body weight was measured at 4, 6, 8, 12, and 16 weeks of age. At 16 weeks of age, Cln3^Δex7/8 mice along with age matched wildtype control mice were CO2 euthanized and intracardially perfused with PBS. Brains were collected and placed on a 1 mm sagittal brain block. Brains were sliced at the midline and 3 mm right of the midline. The 3 mm sagittal piece was flash frozen with −50° C. isopentane and then sectioned on a cryostat at 16 μm and placed on slides. For ASM measurements, slides were counterstained with DAPI. The other hemisphere was fixed in 4% PFA and sectioned at 50 microns on a vibratome. Immunohistochemistry was performed on free-floating sections. For SubC, GFAP, and CD68 immunolabeling, primary antibodies included mitochondrial anti-ATP synthase subunit C (Abcam, ab181243; 1:1000), anti-GFAP (Dako, Z0334; 1:5000), anti-CD68 (AbD Serotec, MCA1957; 1:2000), and secondary antibodies included anti-rabbit biotinylated (Vector Labs, BA-1000 1:1000) and anti-rat (Vector Labs, BA-9400 1:1000). Coverslips were mounted on slides using antifade-mounting media and were stored in the dark before imaging. ASM slides were imaged on a Nikon ECLIPSE™ Ni-E upright microscope with a CoolSNAP™ DYNO camera. Images were extracted from S1BF of the somatosensory cortex, CA3 of the hippocampus, and the VPM/VPL of the thalamus, with multiple images taken of multiple tissues from each animal. IHC slides were imaged and analyzed using an Aperio Digital Pathology Slide Scanner (AT2) and associated software. Images were extracted from the S1BF of the somatosensory cortex, the CA3 of the hippocampus, and the VPM/VPL of the thalamus.
In a further experiment, wild type (WT) and mutant primary neuronal cultures (PNCs) were treated with vehicle or semaglutide (10 nM, 100 nM, 1 μM; see FIG. 19). Cells were plated on in vitro day 0 and dosed with drug-containing media on DIV3 and DIV5. Analysis occurred on DIV7. Concentrations of drug are shown on the x-axis above each image column; genotypes are shown to the left of each row. […] Increasing concentrations of AF38469 are shown along the x-axis.

With Cc1cccc(NC(=O)c2ccc(C(F)(F)F)cc2C(=O)O)n1 [AF38469, 2-((6-methylpyridin-2-yl)carbamoyl)-5-(trifluoromethyl)benzoic acid] the “accumulation of autofluorescent storage material (ASM)” value (“accumulation” below) (NCL MEFs; 40 nM, 400 nM, 4 μM, Cln1^R151X, Cln2^R207X, Cln3^Δex7/8, Cln6^nclf, Cln8^mnd MEFs, DIV7) was “significantly reduced”, the “accumulation” value (NCL MEFs; Cln11^−/− MEFs, DIV7) was “did not have an impact” and the LysoTracker signal (NCL PNCs; 40 nM and 400 nM, Cln2^R207X PNCs) was “had no impact”. The LysoTracker signal (NCL PNCs; 40 nM, 400 nM, 4 μM, Cln1^R151X and Cln6^nclf PNCs, DIV7) was “significantly reduced”, the LysoTracker signal (NCL PNCs; 40 nM, Cln3^Δex7/8 PNCs) was “significantly increased” and the LysoTracker signal (NCL PNCs; 40 nM, Cln8^mnd PNCs) was “significantly increased”. For the same compound, the LysoTracker signal (NCL PNCs; 400 nM, Cln3^Δex7/8 PNCs) was “significantly reduced”, the LysoTracker signal (NCL PNCs; 400 nM, Cln8^mnd PNCs) was “significantly increased” and the LysoTracker signal (NCL PNCs; 4 μM, Cln2^R207X PNCs) was “significantly reduced”. For the same compound, the LysoTracker signal (NCL PNCs; 4 μM, Cln3^Δex7/8 PNCs) was “had no impact” and the LysoTracker signal (NCL PNCs; 4 μM, Cln8^mnd PNCs) was “had no impact”.
In the case of semaglutide, the “accumulation” value (NCL MEFs; semaglutide 10 nM, 100 nM, 1 μM, Cln1^R151X, Cln2^R207X, Cln3^Δex7/8, Cln6^nclf, Cln8^mnd MEFs) is reported as “had no impact”, the “Lysotracker signal (as printed, FIG. 19B)” value (NCL PNCs; semaglutide 10 nM, 100 nM, 1 μM, Cln2^R207X and Cln6^nclf PNCs) is reported as “significantly reduced” and the LysoTracker signal (NCL PNCs; semaglutide 10 nM, 100 nM, 1 μM, Cln3^Δex7/8 PNCs) is reported as “had no impact”. For the same compound, the LysoTracker signal (NCL PNCs; semaglutide 10 nM, 100 nM, 1 μM, Cln6^nclf and Cln8^mnd PNCs) was “significantly reduced”, the LysoTracker signal (NCL PNCs; semaglutide 10 nM, 1 μM, Cln2^R207X PNCs) was “significantly reduced” and the LysoTracker signal (NCL PNCs; semaglutide 10 nM, Cln1^R151X PNCs) was “significantly elevated”. For the same compound, the LysoTracker signal (NCL PNCs; semaglutide 100 nM, 1 μM, Cln1^R151X PNCs) was “significantly reduced” and the LysoTracker signal (NCL PNCs; semaglutide 100 nM, Cln2^R207X PNCs) was “significantly elevated”.
In the case of CC[C@H](C)[C@H](N)C(=O)NCCN1CCOCC1 [LM11A-31, N-[2-(morpholin-4-yl)ethyl]-L-isoleucinamide], the “accumulation” value (NCL MEFs; LM11A-31 100 nM, 1 μM, 10 μM, Cln1^R151X, Cln6^nclf, Cln8^mnd MEFs, DIV7) is reported as “did not reduce”, the “accumulation” value (NCL MEFs; LM11A-31 (mid to high doses), Cln2^R207X and Cln3^Δex4/8 (so in the source) MEFs) is reported as “trended towards reductions; also recorded: decreasing trend” and the LysoTracker signal (NCL PNCs; LM11A-31 100 nM, Cln2^R207X PNCs) is reported as “significantly reduced”. The LysoTracker signal (NCL PNCs; LM11A-31 1 μM, Cln6^nclf PNCs) was “significantly reduced”.
